Results as given in patent publication US9139525B2, “N-oxide and/or di-N-oxide derivatives of dopamine receptor stabilizers/modulators displaying improved cardiovascular side-effects profiles” (TEVA PHARMACEUTICALS INTERNATIONAL GMBH, priority 2007, dated 2015).

Columns and labels:
[1] = after S-3-OTf-3-PPP-N-ox (13) 100 μmol/kg p.o.; between 0 h and 6 h; sampled every 1 h
Experimental: 3-OTf-3-PPP-N-ox was measured at Rt=11.68 min with a +MRM of 368/235. Precursor 3-OTf-3-PPP was measured at Rt=11.50 min with a +MRM of 352/219.

[2] = tested on: dopamine, DOPAC and 5-HIAA in the striatum; experiment: Microdialysis in rat striatum (freely moving rats; dopamine, DOPAC and 5-HIAA by HPLC with electrochemical detection); format: in vivo
Experimental: Microdialysis in Rat Striatum Standard microdialysis experiments were performed on-line in freely moving rats. The striatum was perfused with a Ringer solution and dopamine, DOPAC and 5-HIAA were quantified by HPLC with electrochemical detection.

[3] = oral administration, 91 μmol/kg

CCCN1CCC[C@@H](c2cccc(OS(=O)(=O)C(F)(F)F)c2)C1 [(−)-3-PPP triflate, S-3-Trifluoro-methanesulfonyloxy-(1-n-propyl-phenyl)piperidine, reference compound]
striatal concentration of the precursor after dosing of the N-oxide [1]: continuous rise
3,4-dihydroxyphenylacetic acid (DOPAC) level, maximum ([2]; 100 μmol/kg per os): about 175%
dopamine (DA) level, maximum ([2]; 100 μmol/kg per os): about 175%
level of 5-hydroxyindolacetic acid (HIAA) ([2]; 100 μmol/kg per os): around 100%
time of maximum of DA and DOPAC level ([2]; 100 μmol/kg per os): about 150 minutes
levels of dopamine and DOPAC after about 195 minutes ([2]; 100 μmol/kg per os, after about 195 minutes (3.25 hours)): decrease
dopamine level, second rise ([2]; 100 μmol/kg per os, after about 240 minutes (4 hours)): 350 % of controls

CCC[N+]1([O-])CCC(c2cccc(S(C)(=O)=O)c2)CC1 (centres unmarked) [ACR16 N-oxide, 4-(3-Methanesulfonyl-phenyl)-1-propyl-piperidine-1-oxide]
3,4-dihydroxyphenylacetic acid (DOPAC) level ([2]; 50 μmol/kg per os): slight rise
dopamine (DA) level ([2]; 50 μmol/kg per os, after about 45 minutes): considerable rise
3,4-dihydroxyphenylacetic acid (DOPAC) level ([2]; 100 μmol/kg per os given at 180 minutes after a first 50 μmol/kg per os): goes up
level of dopamine, maximum height ([2]; 100 μmol/kg per os given at 180 minutes after a first 50 μmol/kg per os, peak after 240 minutes): more than 250 % of controls

CCC[N+]1([O-])CC=C(c2cccc(S(C)(=O)=O)c2)CC1 (centres unmarked) [ACR16-ene-N-ox, 4-(3-Methanesulfonyl-phenyl)-1-propyl-1,2,3,6-tetrahydro-pyridine-N-oxide]
DA release [2, 3]: about 300 % of controls
DOPAC release [2, 3]: about 300 % of controls
duration of the effects on DA and DOPAC release [2, 3]: > 4 h

CCC[N+]1([O-])CCCC(c2cccc(OS(=O)(=O)C(F)(F)F)c2)C1 (centres unmarked) [S-3-PPP triflate-N-oxide, S-Trifluoromethanesulfonic acid 3-(1-propyl-piperidin-3-yl)-phenyl ester-1-oxide]
3,4-dihydroxyphenylacetic acid (DOPAC) level, maximum ([2]; 100 μmol/kg per os): ~150%
dopamine (DA) level, maximum ([2]; 100 μmol/kg per os): about 230%
level of 5-hydroxyindolacetic acid (HIAA) ([2]; 100 μmol/kg per os): around 100%
time of maximum of DA and DOPAC level ([2]; 100 μmol/kg per os): about 120 minutes
course of DA and DOPAC levels after the maximum ([2]; 100 μmol/kg per os, whole experiment (6 h)): constant over the whole experiment
pharmacological effect and duration of action ([2]; microdialysis in rat striatum): pronounced pharmacological effect with a very long duration of action
